From patent US11123350B2, “Metal delivery agents and therapeutic uses of the same” (THE UNIVERSITY OF MELBOURNE, priority 2006, dated 2021)

Legend:
A30P cells = test: Dopamine induced cell death, A30P cells (MTT); format: cell-based
G93A-SOD1 mice = details: other reported pharmacological treatments (literature); cited from earlier work

## CN=C([S-])N/N=C(C)/C(C)=N/NC([S-])=NC.[64Cu+2] [Complex A2, copper(II)diacetylbis(N(4)-methylthiosemicarbazone)]
A30P cells; Dopamine 500 μm + complex 0.01 μM
  % recovery: 105.90%
A30P cells; Dopamine 500 μm + complex 0.1 μM
  % recovery: 97.77%

## NCC1(CC(=O)O)CCCCC1 [Gabapentin]
G93A-SOD1 mice
  Increased Life Span: No effect

## CC(=O)Oc1ccccc1C(=O)O [Lysine Acetyl salicylate]
G93A-SOD1 mice
  Increased Life Span: No effect

## O=C1NC(=O)C(c2ccc(-c3ccccc3)cc2)(N2CCN(c3ccc([N+](=O)[O-])cc3)CC2)C(=O)N1 [Ro 28-2653]
G93A-SOD1 mice
  Increased Life Span: 13 days
